# Test results reported in patent US8258134B2, “Pyridazinone glucokinase activators” (Hoffmann-La Roche Inc., priority 2008, dated 2012).
# Molecular target: T1, Recombinant human liver GK1 (GST-GK) (Homo sapiens, UniProt P35557)
# T1 construct: made in house; host or cells: E. coli
# T1 sequence (P35557 1-466 isoform P35557-2): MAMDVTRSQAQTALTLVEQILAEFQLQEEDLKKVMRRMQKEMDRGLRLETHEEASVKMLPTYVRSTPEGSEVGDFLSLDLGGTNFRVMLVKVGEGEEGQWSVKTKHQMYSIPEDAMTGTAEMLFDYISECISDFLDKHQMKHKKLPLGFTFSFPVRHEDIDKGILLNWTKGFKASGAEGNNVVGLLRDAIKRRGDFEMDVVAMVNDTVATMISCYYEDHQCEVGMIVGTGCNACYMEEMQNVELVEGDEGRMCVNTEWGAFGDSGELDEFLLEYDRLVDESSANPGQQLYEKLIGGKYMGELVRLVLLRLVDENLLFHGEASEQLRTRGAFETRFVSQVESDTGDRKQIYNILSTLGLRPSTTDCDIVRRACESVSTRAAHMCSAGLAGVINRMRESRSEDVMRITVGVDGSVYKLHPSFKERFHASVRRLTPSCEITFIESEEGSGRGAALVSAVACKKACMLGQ
# Test: Glucokinase in vitro assay (G6PDH-coupled NADH generation, OD340)
# Format: biochemical
# Settings: 5 mM D-glucose, 30° C., pH 7.1, 10% DMSO
# In short: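 GST-tagged recombinant GK1 expressed in E. coli, run at 30° C, pH 7.1 Hepes with 5 mM D-glucose, 1 mM ATP and 1.8 mM NAD, G6PDH-coupled. Compounds were in 10% DMSO final, with a 10 min pre-incubation before enzyme addition. OD340/min rate measured; SC1.5 is the activator concentration giving a 50% increase in activity.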
row,SMILES,SC1.5 average (concentration of activator that produced a 50% increase in the activity of GK) [µM]
1,"Cn1nc(C(F)(F)F)cc1Oc1cnn(C(CC2CCCC2)C(=O)Nc2ccn(C[C@@H](O)CO)n2)c(=O)c1 (stereo partly drawn) [Example 103, 3-Cyclopentyl-N-[1-((R)-2,3-dihydroxy-propyl)-1H-pyrazol-3-yl]-2-[4-(2-methyl-5-trifluoromethyl-2H-pyrazol-3-yloxy)-6-oxo-6H-pyridazin-1-yl]-propionamide]",2.591
2,"O=C(O)c1ccc(NC(=O)[C@H](CC2CCCC2)n2ncc(Oc3ccccc3F)cc2=O)nc1 [Example 75A, 6-{(S)-3-Cyclopentyl-2-[4-(2-fluoro-phenoxy)-6-oxo-6H-pyridazin-1-yl]-propionylamino}-nicotinic acid]",0.033
3,"CCOc1ccc(F)c(Oc2cnn(C(CC3CCOCC3)C(=O)Nc3ccn(C[C@@H](O)CO)n3)c(=O)c2)c1F (stereo partly drawn) [Example 121, N-[1-((R)-2,3-Dihydroxy-propyl)-1H-pyrazol-3-yl]-2-[4-(3-ethoxy-2,6-difluoro-phenoxy)-6-oxo-6H-pyridazin-1-yl]-3-(tetrahydro-pyran-4-yl)-propionamide]",0.088
4,"O=C(Nc1ccn(C[C@H](O)CO)n1)[C@H](CC1CCCC1)n1ncc(Oc2c(F)cccc2F)cc1=O [Example 65A, (S)-3-Cyclopentyl-2-[4-(2,6-difluoro-phenoxy)-6-oxo-6H-pyridazin-1-yl]-N-[1-((S)-2,3-dihydroxy-propyl)-1H-pyrazol-3-yl]-propionamide]",0.049
5,"CC(C)(O)Cn1ccc(NC(=O)C(Cc2ccccc2)n2ncc(Oc3c(F)cccc3F)cc2=O)n1 (stereo not drawn) [Example 44, 2-[4-(2,6-Difluoro-phenoxy)-6-oxo-6H-pyridazin-1-yl]-N-[1-(2-hydroxy-2-methyl-propyl)-1H-pyrazol-3-yl]-3-phenyl-propionamide]",1.032
6,"CC(C)(O)Cn1ccc(NC(=O)[C@@H](CC2CCCC2)n2ncc(Oc3cc(F)ccc3F)cc2=O)n1 [Example 33B, (R)-3-Cyclopentyl-2-[4-(2,5-difluoro-phenoxy)-6-oxo-6H-pyridazin-1-yl]-N-[1-(2-hydroxy-2-methyl-propyl)-1H-pyrazol-3-yl]-propionamide]",8.849
7,"O=C(Nc1ccn(CCO)n1)C(CC1CCCCC1)n1ncc(Oc2c(F)cccc2F)cc1=O (stereo not drawn) [Example 56, 3-Cyclohexyl-2-[4-(2,6-difluoro-phenoxy)-6-oxo-6H-pyridazin-1-yl]-N-[1-(2-hydroxy-ethyl)-1H-pyrazol-3-yl]-propionamide]",0.153
8,CC(C)(O)Cn1ccc(NC(=O)C(CC2CCCC2)n2ncc(Oc3cccc4ccccc34)cc2=O)n1 (stereo not drawn) [Example 20],0.058
9,"O=C(Nc1ccn(C[C@H](O)CO)n1)C(CC1CCCC1)n1ncc(Oc2c(F)cccc2F)cc1=O (stereo partly drawn) [Example 65, 3-Cyclopentyl-2-[4-(2,6-difluoro-phenoxy)-6-oxo-6H-pyridazin-1-yl]-N-[1-((S)-2,3-dihydroxy-propyl)-1H-pyrazol-3-yl]-propionamide]",0.102
10,"O=C(Nc1ccn(CCO)n1)C(Cc1c(F)cccc1F)n1ncc(Oc2c(F)cccc2F)cc1=O (stereo not drawn) [Example 57, 2-[4-(2,6-Difluoro-phenoxy)-6-oxo-6H-pyridazin-1-yl]-3-(2,6-difluoro-phenyl)-N-[1-(2-hydroxy-ethyl)-1H-pyrazol-3-yl]-propionamide]",0.986
11,"Cc1cc(C)nc(Oc2cnn(C(CC3CCCC3)C(=O)Nc3ccn(C[C@@H](O)CO)n3)c(=O)c2)n1 (stereo partly drawn) [Example 102, 3-Cyclopentyl-N-[1-((R)-2,3-dihydroxy-propyl)-1H-pyrazol-3-yl]-2-[4-(4,6-dimethyl-pyrimidin-2-yloxy)-6-oxo-6H-pyridazin-1-yl]-propionamide]",0.56
12,"CC(C)(O)Cn1ccc(NC(=O)C(CC2CCCC2)n2ncc(Oc3cccc4c3OC(C)(C)C4)cc2=O)n1 (stereo not drawn) [Example 89, 3-Cyclopentyl-2-[4-(2,2-dimethyl-2,3-dihydro-benzofuran-7-yloxy)-6-oxo-6H-pyridazin-1-yl]-N-[1-(2-hydroxy-2-methyl-propyl)-1H-pyrazol-3-yl]-propionamide]",0.568
13,"O=C(Nc1ccn(C[C@@H](O)CO)n1)C(CC1CCCC1)n1ncc(Oc2cccc(Cl)c2F)cc1=O (stereo partly drawn) [Example 104, 2-[4-(3-Chloro-2-fluoro-phenoxy)-6-oxo-6H-pyridazin-1-yl]-3-cyclopentyl-N-[1-((R)-2,3-dihydroxy-propyl)-1H-pyrazol-3-yl]-propionamide]",0.139
14,"CC(C)(O)Cn1ccc(NC(=O)C(CC2CCCCC2)n2ncc(Oc3c(F)cccc3F)cc2=O)n1 (stereo not drawn) [Example 51, 3-Cyclohexyl-2-[4-(2,6-difluoro-phenoxy)-6-oxo-6H-pyridazin-1-yl]-N-[1-(2-hydroxy-2-methyl-propyl)-1H-pyrazol-3-yl]-propionamide]",0.087
15,"O=C(Nc1ccn(CCO)n1)[C@H](CC1CCCC1)n1ncc(Oc2c(F)cccc2F)cc1=O [Example 60A, (S)-3-Cyclopentyl-2-[4-(2,6-difluoro-phenoxy)-6-oxo-6H-pyridazin-1-yl]-N-[1-(2-hydroxy-ethyl)-1H-pyrazol-3-yl]-propionamide]",0.066
16,"O=C(Nc1ccn(C[C@@H](O)CO)n1)C(CC1CCCC1)n1ncc(Oc2c(F)cccc2F)cc1=O (stereo partly drawn) [Example 105, 3-Cyclopentyl-2-[4-(2,6-difluoro-phenoxy)-6-oxo-6H-pyridazin-1-yl]-N-[1-((R)-2,3-dihydroxy-propyl)-1H-pyrazol-3-yl]-propionamide]",0.072
17,"COc1ccc(Oc2cnn(C(CC3CCCCC3)C(=O)Nc3ccn(CC(C)(C)O)n3)c(=O)c2)c(F)c1 (stereo not drawn) [Example 116, 3-Cyclohexyl-2-[4-(2-fluoro-4-methoxy-phenoxy)-6-oxo-6H-pyridazin-1-yl]-N-[1-(2-hydroxy-2-methyl-propyl)-1H-pyrazol-3-yl]-propionamide]",0.543
18,"O=C(Nc1ccn(CCO)n1)C(Cc1ccccc1)n1ncc(Oc2c(F)cccc2F)cc1=O (stereo not drawn) [Example 58, 2-[4-(2,6-Difluoro-phenoxy)-6-oxo-6H-pyridazin-1-yl]-N-[1-(2-hydroxy-ethyl)-1H-pyrazol-3-yl]-3-phenyl-propionamide]",2.719
19,"CC(C)(O)Cn1ccc(NC(=O)[C@H](CC2CCCC2)n2ncc(Oc3cccc(F)c3F)cc2=O)n1 [Example 31A, (S)-3-Cyclopentyl-2-[4-(2,3-difluoro-phenoxy)-6-oxo-6H-pyridazin-1-yl]-N-[1-(2-hydroxy-2-methyl-propyl)-1H-pyrazol-3-yl]-propionamide]",0.18
20,"CCC(CC)CC(C(=O)Nc1ccn(CC(C)(C)O)n1)n1ncc(Oc2c(F)cccc2F)cc1=O (stereo not drawn) [Example 52, 2-[4-(2,6-Difluoro-phenoxy)-6-oxo-6H-pyridazin-1-yl]-4-ethyl-hexanoic acid [1-(2-hydroxy-2-methyl-propyl)-1H-pyrazol-3-yl]-amide]",0.456
21,"CC(C)CC(C(=O)Nc1ccn(C[C@@H](O)CO)n1)n1ncc(Oc2cccc3[nH]ccc23)cc1=O (stereo partly drawn) [Example 111, 2-[4-(1H-Indol-4-yloxy)-6-oxo-6H-pyridazin-1-yl]-4-methyl-pentanoic acid [1-((R)-2,3-dihydroxy-propyl)-1H-pyrazol-3-yl]-amide]",0.554
22,"CC(C)(O)Cn1ccc(NC(=O)C(CC2CCCC2)n2ncc(Oc3cccc4cccnc34)cc2=O)n1 (stereo not drawn) [Example 39, 3-Cyclopentyl-N-[1-(2-hydroxy-2-methyl-propyl)-1H-pyrazol-3-yl]-2-[6-oxo-4-(quinolin-8-yloxy)-6H-pyridazin-1-yl]-propionamide]",0.499
23,"CC(C)(O)Cn1ccc(NC(=O)[C@H](CC2CCCC2)n2ncc(Oc3ccccc3C#N)cc2=O)n1 [Example 29A, (S)-2-[4-(2-Cyano-phenoxy)-6-oxo-6H-pyridazin-1-yl]-3-cyclopentyl-N-[1-(2-hydroxy-2-methyl-propyl)-1H-pyrazol-3-yl]-propionamide]",0.159
24,"O=C(Nc1ccn(C[C@@H](O)CO)n1)C(CC1CCCC1)n1ncc(Oc2ncccc2F)cc1=O (stereo partly drawn) [Example 95, 3-Cyclopentyl-N-[1-((R)-2,3-dihydroxy-propyl)-1H-pyrazol-3-yl]-2-[4-(3-fluoro-pyridin-2-yloxy)-6-oxo-6H-pyridazin-1-yl]-propionamide]",12.633
